Results taken from patent US20240293441A1, “NEW THERAPEUTIC USE OF TYPE 2 IODOTHYRONINE DEIODINASE (D2) INHIBITORS” (MATERIAS S.R.I, priority 2021, published 2024).

Assays:
DysE17 flies = assay: Climbing assay (negative geotaxis) in dystrophic Drosophila fed amiodarone; assay type: in vivo, Drosophila melanogaster
Source text: The genetic loss-of-function homozygous Drosophila mutant for dystrophin (dys), DysE17 (hiips://flybase.org/reports/FBal0241311.html) was employed as a Duchenne muscular dystrophy model, which carries a point mutation on chromosome 3 (location: 92A10, 3R:19,590,458 . . . 19,590,458) causing a nucleotide change C19590458T and consequently the amino acid change Q2807term|Dys-PA. This is a termination codon determining full-length dys protein to be abnormally shortened. As control, the wild-type Oregon-R strain was used.
The adult wild-type animals and mutant fruit flies were treated with amiodarone at increasing concentrations, supplemented in the food for 30 days.
Eclosed Oregon-R and homozygous DysE17 Drosophila (1-2 days of adult age) were placed in vials (10-15 animals/vials) and reared on 4-5 ml of either the standard medium or medium supplemented with amiodarone at increasing doses (100 nM, 1 μM, 10 μM, 20 μM, and 50 μM). Food was replaced each 5 days. Amiodarone-supplemented diets were freshly prepared by mixing amiodarone with appropriate amounts of standard food just before the administration to animals. At least 3 vials per group were prepared within each experiment. Each experiment was repeated 3 or more times: in total, a minimum of 60 animals per experimental condition was analysed.
• Oregon-R receiving vehicle (DMSO 1:1000); • DysE17 flies receiving vehicle (DMSO 1:1000); • DysE17 flies receiving 100 nM amiodarone; • DysE17 flies receiving 1 μM amiodarone; • DysE17 flies receiving 10 μM amiodarone; • DysE17 flies receiving 20 μM amiodarone; • DysE17 flies receiving 50 μM amiodarone.
Flies were treated for 30 days (treatments ended when animals reached 30 days of adult age), with food renewal each 5 days.
Geotaxis was assessed using a climbing assay (negative geotaxis reflex in opposition to the Earth's gravity). A horizontal line was drawn 15 cm above the bottom of the vial. After a 10 minutes rest period, the flies were tapped to the bottom of the vials: all flies were forced to start climbing (vertical walking). The number of flies that climbed up to the 15 cm mark after 60 seconds was recorded as the percentage success rate. A camera recorded fly movement during the experiment. Each trial was performed three times, at one-minute intervals, and the results averaged. Climbing performance was assessed each 5 days starting from day 1-2 of adult age (just after eclosion) and ending at 30 days.
For the validation study, the climbing efficiency and muscle structure of adult wild-type animals and DysE17 mutants were analyzed after food supplementation with amiodarone at increasing concentrations for 0-30 days (geotaxis assay).

denervated mice = assay: Denervation (sciatic nerve transection) muscle wasting mouse model with oral amiodarone; assay type: in vivo
Description: Animals were anesthetized by a ketaminexylazine cocktail and a small incision ([…]) was made in the left tight skin. The sciatic nerve was exposed with the help of a small surgical hook and then cut before the separation of sciatic nerve branches. A small (2-5 mm) nerve section was removed to prevent re-innervation. Denervation was performed unilaterally, using the contralateral hindlimb as a negative control. Tissues were collected 2, 6, 12 or 15 days after denervation surgery.
In denervation+/−Amiodarone experiments, mice were treated for 13 days with Amiodarone and were sacrificed 5 days post induced-denervation (from day −7 up day+5 upon denervation).
(§1) Mice (C57BL6 mice) were treated with 0.45 mg/ml Amiodarone (Sigma, A8423, St. Louis, MO, USA) (Bagchiet al., Circulation Research 1987; 60:621-625; Lee et al., Oncotarget, 2015; 6(40): 42976-42987) in drinking water ad libitum starting 1 week before the induced-denervation or cachexia, until sacrifice.
(§2) Preparation of amiodarone: 45 mg dissolved in 1 ml of water for 10 minutes at 80° C.
In denervation mice models, mice were treated with oral amiodarone for 13 days (from day −7 up day+5 upon denervation).

C26-injected mice = assay: C26 tumor-induced cancer cachexia mouse model with oral amiodarone; assay type: in vivo
Description: Murine colon 26 adenocarcinoma cells (C26) were cultured in DMEM containing 10% fetal bovine serum, 100 U/ml penicillin, and 100 μg/ml streptomycin. For in vivo inoculation, a single suspension of 7×10^6 cells in 100 μl of physiological saline was injected subcutaneously into the right flank of the BALB/c mice. The same volume of physiological saline was injected into the control groups.
In cachexia+/−Amiodarone experiments, mice were treated for 18 days with Amiodarone and were sacrificed 7 days post induced-cachexia. Amiodarone was given from […] (day 1 is the day of cells injection).
as §1, §2
In tumor-induced cachexia mice models, mice were treated with oral amiodarone for 18 days (−7/+11 relative to C26 injection) (FIG. 10A). Matched group of amiodarone-treated and control mice were injected with C26 cells, and muscle wasting was monitored to different days following injection.

pp6 cells = assay: TNFα-induced cell death (PARP immunoblot) in muscle cells with or without rT3; assay type: cell-based, mouse; details: TNFα 24 h; rT3 30 nM
Description: Primary muscle cultures (pp6) were isolated as described (Qu et al., 1998 J Cell Biol 142(5): 1257-1267) from the indicated mouse lines. Immortalized myoblasts (C2C12) were obtained from ATCC. Proliferating cells were cultured in 20% Fetal Bovine Serum Dulbecco's modified Eagle's medium at 37° C. with penicillin/streptomycin. Transient transfections were performed using Lipofectamine 2000 (Life Technologies) according to the manufacturer's instructions. Anti-MyoD (sc-304) and tubulin (sc-8035) antibodies were purchased from Santa Cruz Biotechnology. Anti-Pax7 antibody were from Developmental Studies Hybridoma Bank. Anti-PARP was from Cell Signaling Technology.
Total protein extracts from cells and tissues were run on a 10% sodium dodecyl sulfate-polyacrylamide gel electrophoresis gel and transferred to an Immobilon-P transfer membrane (Millipore, Billerica, MA). The membrane was then blocked with 5% nonfat dry milk in phosphate buffered saline, probed with the primary antibody, washed and incubated with horseradish peroxidase-conjugated donkey anti-rabbit or mouse immunoglobulin G secondary antibody (1:3000), and detected by chemiluminescence (Millipore). After extensive washing, the membrane was incubated with antitubulin-specific or ERK antibody (1:10,000; sc-8035, Santa Cruz, Dallas, TX) as loading control.
In vitro: Pp6 or C2C12 cells were treated with rT3 (30 nM) […]

[1] = test system: mice with CTX-injured tibialis anterior (TA) muscle; assay: Muscle regeneration after cardiotoxin (CTX) injury in rT3-treated mice; assay type: in vivo, mouse
Description: Animals were anesthetized by a ketaminexylazine cocktail, and 12,5 μl of 60 μg/ml CTX (Naja mossambica mossambica, Sigma-Aldrich) was injected into and along the length of the right tibialis anterior (TA) (Yan, 2003 J Biol Chem 278(10): 8826-8836) and 25 μl into gastrocnemius muscle. CTX was injected on different day from Tam.
The tibialis anterior (TA) muscles were dissected and fixed in isopentane in liquid nitrogen, and sliced into 7 μm sections. The cross-sectional area was analyzed and quantified using CellF*Olympus Imaging Software.
Dissected muscles were snap frozen in liquid nitrogen-cooled isopentane, sectioned (7 μm thick) and stained. For immunofluorescent staining, cells or section were fixed with 4% formaldehyde (PFA) and permeabilized in 0.1% Triton X-100, then blocked with 0.5% goat serum and incubated with primary antibody. Alexa Fluor™ 594/647-conjugated secondary antibody was used. Images were acquired with an IX51 Olympus microscope and the Cell*F software. For hematoxylin/eosin staining (H&E), sections were fixed for 15 min and placed in hematoxylin for 5 min followed washed, and 5 min in Eosin.
(§3) In vivo: mice (C56BL6 mice) were treated systemically with an i.v. injection of 100 μl of 30 ng/μl rT3 (Sigma Aldrich) or PBS vehicle control to consecutive 4 days.
To therapeutically exploit the capacity of D2-depletion to activate stem cells and accelerate muscle tissue repair, mice were treated with oral reverse triiodothyronine (rT3, a specific D2-inhibitor) for 7 days (−5/+2 relative to CTX injury) (FIG. 7A).

[2] = test system: mice with full-thickness skin wounds; assay: Skin wound healing in rT3-treated mice; assay type: in vivo, mouse
Description: The back fur of mice was shaved and the skin was cleaned with 70% alcohol. The dorsal skin was pulled using forceps and two 8-mm full-thickness skin wounds were created along the midline using a sterile 8 mm circular biopsy punch by pressing through both layers of the skin pull. Skin wound healing was measured every 2-3 days by anesthetizing the animals and imaging the wounded area.
Excisional, full-thickness skin wounds were aseptically made on the dorsal skin by picking up a fold skin at the midline and using a sterile, disposable biopsy punch with a diameter of 8 mm to punch through the two layers of skin. In this manner, two wounds were made on each side of the midline at the same time. Each wound site was digitally photographed using the Nikon FX-35A at the indicated time intervals, and wound areas were determined on photographs using CellF*. Changes in wound areas were expressed as the percentage of the initial wound areas.
as §3
In a similar setting, the present inventors also tested whether D2 inhibition positively affected wound regeneration in skin.

[3] = gastrocnemius, oral amiodarone 13 days (day −7 to +5 upon denervation), vs control
[4] = TA muscle, 11 days after C26 cells injection, vs control
[5] = 7 days post-CTX, oral rT3 for 7 days (−5/+2 relative to CTX injury), vs control

CCCCc1oc2ccccc2c1C(=O)c1cc(I)c(OCCN(CC)CC)c(I)c1 [Amiodarone (AMIO), Amiodarone]
functional deficits vs untreated Dys animals (DysE17 flies; after 25-30 days of treatment): the same functional deficits
damaged animals (climbing decay) (DysE17 flies; amiodarone 10 μM for 15 days, untreated Dys 35%): 18%
damaged animals (climbing decay) (DysE17 flies; amiodarone 10 μM for 20 days, untreated Dys 55%): 32%
most effective concentration on fly mobility (DysE17 flies; doses 100 nM to 50 μM in food, 30 days): 10 µM
muscle structure of functionally recovered muscles (DysE17 flies; dystrophic mutant flies, chronic amiodarone): still compromised at structural level
effect on climbing decay of dystrophic animals (DysE17 flies; higher concentrations, 20-50 μM): did not alter the climbing decay
effect on fly mobility (DysE17 flies; increasing doses from 100 nM to 10 μM): dose-dependent beneficial effect
effect on mobility at shorter times (DysE17 flies; treatment shorter than 15 days (10 days)): no effects
muscle wasting (gastrocnemius muscle mass) (denervated mice; after denervation, oral amiodarone 13 days): preserved from massive muscle wasting
Atrogin-1 mRNA expression (denervated mice; [3]): potently down-regulated
MuRF-1 mRNA expression (denervated mice; [3]): potently down-regulated
Atrogin-1 mRNA expression (C26-injected mice; [4]): potently down-regulated
MuRF-1 mRNA expression (C26-injected mice; [4]): potently down-regulated
survival (C26-injected mice; after C26 cells injection, control mice about 12.7 days): > 27 days
tumor weight (C26-injected mice; amiodarone-treated vs control mice, 11 days after C26 cells injection): no significant effects
muscle wasting (body, heart, TA and GC weight) (C26-injected mice; oral amiodarone for 18 days (−7/+11 relative to C26 injection), vs control): preserved from massive muscle wasting

N[C@@H](Cc1ccc(Oc2cc(I)c(O)c(I)c2)c(I)c1)C(=O)O [Reverse triiodothyronine (rT3), 3,3′5′-triiodothyronine]
TNFα-induced apoptosis (pp6 cells): protected from apoptosis
fiber size (cross-sectional area) [1, 5]: smaller than control
number of fibers (H&E) [1, 5]: increased number of fibers
fiber size (cross-sectional area) ([1]; 21 days after injury, rT3 for 7 days, vs control): larger fibers
Pax7+/EdU+ cells ([1]; TA sections, rT3 treated mice vs control): increased than control
regrowth of hair in the shaved area ([2]; later time points following skin wounding (28 days post-injury)): more complete regrowth of hair
wound repair ([2]; rT3-treated mice vs control): more rapidly and efficiently than control
